# Laboratory results as given in the supplement of paper PMC10307832.
# Tests used:
# Assay in all cases: relative viability (nuclei count vs DMSO), 5 days (fraction); higher = more cells survive
# [1] = compound: COc1cc2nccc(Oc3ccc(NC(=O)C4(C(=O)Nc5ccc(F)cc5)CC4)cc3)c2cc1OC [Cabozantinib] + CC(=O)Nc1cccc(-n2c(=O)n(C3CC3)c(=O)c3c(Nc4ccc(I)cc4F)n(C)c(=O)c(C)c32)c1 [Trametinib] (partner 0.02 µM)
# Method in brief: (§1)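 A single step with final 0.05% Triton X-100, 1% formaldehyde and 1 ug/ml Hoechst fixed the cells and stained nuclei 5 days after treatment. Lung cancer cell lines in 1536-well plates had been treated by pin tool the day after seeding with one drug alone or a fixed anchor-drug dose plus five library-drug doses (not always all listed) in √10 steps, and nuclei were counted on 4× images. Relative viability is the ratio of nuclei in treated wells to nuclei in vehicle wells, taken as the median of duplicate plates.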
# Zosuquidar + Lapatinib = compound: O[C@@H](COc1cccc2ncccc12)CN1CCN([C@@H]2c3ccccc3[C@@H]3[C@H](c4ccccc42)C3(F)F)CC1 [Zosuquidar] + CS(=O)(=O)CCNCc1ccc(-c2ccc3ncnc(Nc4ccc(OCc5cccc(F)c5)c(Cl)c4)c3c2)o1 [Lapatinib] (partner 2 µM)
# Method in brief: as §1
# Kobe2602 + Olaparib = compound: C1=CC(=CC=C1NC(=S)NNC2=C(C=C(C=C2[N+](=O)[O-])C(F)(F)F)[N+](=O)[O-])F [Kobe2602] + O=C(c1cc(Cc2n[nH]c(=O)c3ccccc23)ccc1F)N1CCN(C(=O)C2CC2)CC1 [Olaparib] (partner 8 µM)
# Method in brief: as §1
# Zosuquidar + Dasatinib = compound: O[C@@H](COc1cccc2ncccc12)CN1CCN([C@@H]2c3ccccc3[C@@H]3[C@H](c4ccccc42)C3(F)F)CC1 [Zosuquidar] + Cc1nc(Nc2ncc(C(=O)Nc3c(C)cccc3Cl)s2)cc(N2CCN(CCO)CC2)n1 [Dasatinib] (partner 0.075 µM)
# Method in brief: as §1
cell line,measurement,setting,value
UMC-11,relative viability,[1]; first compound 0.02 µM,0.666
same,relative viability,[1]; first compound 0.06325 µM,0.808
same,relative viability,[1]; first compound 0.2 µM,0.782
same,relative viability,[1]; first compound 0.6325 µM,0.548
same,relative viability,[1]; first compound 2 µM,0.69
same,relative viability,Zosuquidar + Lapatinib; first compound 0.01 µM,0.895
same,relative viability,Zosuquidar + Lapatinib; first compound 0.03162 µM,1.07
same,relative viability,Zosuquidar + Lapatinib; first compound 0.1 µM,0.89
same,relative viability,Zosuquidar + Lapatinib; first compound 0.3162 µM,1.14
same,relative viability,Zosuquidar + Lapatinib; first compound 1 µM,0.96
same,relative viability,Kobe2602 + Olaparib; first compound 0.2 µM,0.404
same,relative viability,Kobe2602 + Olaparib; first compound 0.6325 µM,1.07
same,relative viability,Kobe2602 + Olaparib; first compound 2 µM,0.384
same,relative viability,Kobe2602 + Olaparib; first compound 6.325 µM,0.366
same,relative viability,Kobe2602 + Olaparib; first compound 20 µM,1.02
same,relative viability,Zosuquidar + Dasatinib; first compound 0.01 µM,0.428
same,relative viability,Zosuquidar + Dasatinib; first compound 0.03162 µM,0.535
same,relative viability,Zosuquidar + Dasatinib; first compound 0.1 µM,0.455
same,relative viability,Zosuquidar + Dasatinib; first compound 0.3162 µM,0.486
same,relative viability,Zosuquidar + Dasatinib; first compound 1 µM,0.518
